Reference: the supplement of paper PMC8960247
Where a name gives a salt, the structure may show the parent alone. ± gives the standard error.

What was measured:
[1] = test system: 621-102 (TSC2-deficient); assay: relative viability vs DMSO; higher = less cytotoxic; conditions: serum: 10% FBS, 72 h
[2] = test system: 621-103 (TSC2-rescued); assay: as above; conditions: serum: 10% FBS, 72 h
[3] = test system: 621-102 (TSC2-deficient); assay: relative viability vs DMSO (fraction); higher = less cytotoxic; conditions: serum: 0.1% FBS, 72 h
[4] = test system: UMB1949 (TSC2-deficient); assay: as above; conditions: serum: 0.1% FBS, 72 h;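 further: renal angiomyolipoma cell lines screened in 384-well plates, viability normalized per plate to DMSO-treated cells, each plate carrying 50 nM rapamycin and 1 µM staurosporine controls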

| Structure (SMILES) | relative viability ([1]; 0.0001 µM) [%] | relative viability ([1]; 0.001 µM) [%] | relative viability ([1]; 0.01 µM) [%] | relative viability ([1]; 0.1 µM) [%] | relative viability ([1]; 1 µM) [%] | relative viability ([1]; 10 µM) [%] | relative viability ([2]; 0.0001 µM) [%] | relative viability ([2]; 0.001 µM) [%] | relative viability ([2]; 0.01 µM) [%] | relative viability ([2]; 0.1 µM) [%] | relative viability ([2]; 1 µM) [%] | relative viability ([2]; 10 µM) [%] | relative viability ([3]; 0.0128 nM) | relative viability ([3]; 0.064 nM) | relative viability ([3]; 0.32 nM) | relative viability ([3]; 1.6 nM) | relative viability ([3]; 8 nM) | relative viability ([3]; 40 nM) | relative viability ([3]; 200 nM) | relative viability ([3]; 1000 nM) | relative viability ([3]; 5000 nM) | relative viability ([4]; 0.0128 nM) | relative viability ([4]; 0.064 nM) | relative viability ([4]; 0.32 nM) | relative viability ([4]; 1.6 nM) | relative viability ([4]; 8 nM) | relative viability ([4]; 40 nM) | relative viability ([4]; 200 nM) | relative viability ([4]; 1000 nM) | relative viability ([4]; 5000 nM) |
| --- | --- | --- | --- | --- | --- | --- | --- | --- | --- | --- | --- | --- | --- | --- | --- | --- | --- | --- | --- | --- | --- | --- | --- | --- | --- | --- | --- | --- | --- | --- |
| CO[C@H]1C[C@@H]2CC[C@@H](C)[C@@](O)(O2)C(=O)C(=O)N2CCCC[C@H]2C(=O)O[C@H]([C@H](C)C[C@@H]2CC[C@@H](OP(C)(C)=O)[C@H](OC)C2)CC(=O)[C@H](C)/C=C(\C)[C@@H](O)[C@@H](OC)C(=O)[C@H](C)C[C@H](C)/C=C/C=C/C=C/1C [Deforolimus(MK-8669)] | 47.2 ± 1.4 | 56.5 ± 2.7 | 56.6 ± 1.4 | 51.2 ± 2 | 47.9 ± 3 | 48.8 ± 5.1 | 64.9 ± 4.2 | 64.215 ± 0.057 | 68.4 ± 2.7 | 69.1 ± 1.9 | 64.44 ± 0.59 | 67.4 ± 1.6 | 0.609 | 0.552 | 0.523 | 0.466 | 0.466 | 0.493 | 0.373 | 0.281 | 0.284 | 0.988 | 0.964 | 0.973 | 0.932 | 0.899 | 0.802 | 0.693 | 0.381 | 0.459 |
| C=C1C[C@@H]2[C@H](CC[C@]3(C)C(=O)CC[C@@H]23)[C@@]2(C)C=CC(=O)C=C12 [Exemestane] | 130 ± 2.1 | 122 ± 5.8 | 119 ± 1.2 | 114 ± 3.2 | 113 ± 5.9 | 105 ± 3.4 | 100.1 ± 0.24 | 101 ± 2.2 | 104 ± 1.6 | 100 ± 1.2 | 97.5 ± 1.4 | 92.3 ± 2.7 | 1.16 | 1.08 | 1.02 | 0.948 | 1.06 | 1.11 | 1.12 | 0.94 | 0.891 | 0.936 | 0.98 | 0.996 | 1.01 | 1.08 | 1.02 | 0.927 | 0.859 | 0.773 |
| Nc1ccn([C@@H]2O[C@H](CO)[C@@H](O)C2(F)F)c(=O)n1 [Gemcitabine Hydrochloride] | 108 ± 11 | 93 ± 1.5 | 52.67 ± 0.069 | 52.6 ± 0.69 | 44.7 ± 3.6 | 32.9 ± 0.75 | 103 ± 1.8 | 95.2 ± 9.7 | 51.9 ± 0.63 | 50 ± 2.1 | 41.866 ± 0.0075 | 28.5 ± 1.5 | 1.07 | 0.96 | 0.953 | 0.0927 | 0.0285 | 0.023 | 0.0148 | 0.008 | 0.00219 | 1.06 | 1.01 | 1.02 | 0.0319 | 0.014 | 0.00861 | 0.007 | 0.00362 | 0.00263 |
| COc1ccc(S(=O)(=O)N(C(C)=O)c2ccccc2/C=C/c2cc[n+]([O-])cc2)cc1 [HMN-214] | 112 ± 4 | 110 ± 1.5 | 96.8 ± 5.4 | 92.7 ± 1.4 | 40.4 ± 1.6 | 37 ± 2.7 | 98.78 ± 0.21 | 99.62 ± 0.55 | 100.9 ± 0.31 | 97.91 ± 0.21 | 45.5 ± 1.1 | 39.5 ± 0.96 | 1.16 | 1.09 | 1.35 | 1.08 | 1.01 | 1.02 | 0.0913 | 0.0251 | 0.03 | 1.14 | 1.08 | 1.09 | 1.17 | 1.09 | 0.985 | 0.0414 | 0.0021 | 0.00207 |
| O=C1Nc2ccccc2/C1=C1/Nc2ccccc2C1=O [Indirubin] | 97.2 ± 1.8 | 92.9 ± 2 | 91.53 ± 0.38 | 87.8 ± 2.7 | 92.2 ± 1.6 | 89.5 ± 2.1 | 86.1 ± 1.6 | 82.2 ± 3.9 | 83.7 ± 2.7 | 81.9 ± 4 | 79.1 ± 3.3 | 64 ± 2.4 | 1.08 | 0.927 | 1.06 | 0.906 | 0.922 | 0.996 | 0.841 | 0.652 | 0.833 | 0.983 | 1.03 | 1.02 | 0.972 | 0.941 | 0.964 | 0.87 | 0.811 | 0.749 |
| O=C(Cc1ccc(-c2ccc(OCCN3CCOCC3)cc2)cn1)NCc1ccccc1 [KX2-391] | 90.4 ± 1.4 | 98.1 ± 14 | 70 ± 2.2 | 47.7 ± 0.7 | 35.2 ± 2.1 | 37.3 ± 0.46 | 101 ± 3.5 | 96.4 ± 5.7 | 58.7 ± 3.5 | 50.8 ± 1 | 33.05 ± 0.28 | 34.1 ± 1.5 | 1.18 | 0.965 | 1.06 | 0.813 | 0.205 | 0.0932 | 0.069 | 0.0401 | 0.0343 | 1.23 | 1.1 | 1.12 | 1.01 | 0.0594 | 0.00501 | 0.00135 | 0.00316 | 0.00418 |
| O=C(/C=C/c1ccc(CN(CCO)CCc2c[nH]c3ccccc23)cc1)NO [LAQ824] | 92.2 ± 3.3 | 87.2 ± 0.88 | 83.3 ± 3.2 | 54.8 ± 0.8 | 31.7 ± 1.1 | 16.2 ± 0.46 | 94.4 ± 1.2 | 94.1 ± 1.4 | 67.9 ± 1.9 | 21.1 ± 0.62 | 2.61 ± 0.065 | 1.459 ± 0.0077 | 1.04 | 0.934 | 0.921 | 0.89 | 0.628 | 0.173 | 0.0545 | 0.00134 | 0.000846 | 1.01 | 0.942 | 0.887 | 0.67 | 0.0147 | 0.00199 | 0.000488 | 0.000621 | 0.000364 |
| CC(C)C[C@H](NC(=O)CNC(=O)c1cc(Cl)ccc1Cl)B(O)O [MLN2238] | 113.5 ± 0.41 | 107.81 ± 0.071 | 109 ± 2.2 | 33.7 ± 7.2 | 4.42 ± 0.32 | 1.79 ± 0.047 | 100.04 ± 0.065 | 102.4 ± 0.21 | 103 ± 0.3 | 6.24 ± 0.3 | 1.63 ± 0.11 | 0.879 ± 0.059 | 1.04 | 1.1 | 0.991 | 1.15 | 0.999 | 0.243 | 0.0069 | 0.000706 | 0.00111 | 0.999 | 1.11 | 1.04 | 1.06 | 0.886 | 0.00829 | 0.00329 | 0.000634 | 0.000752 |
| COc1cc(Nc2ncc3c(n2)-c2ccc(Cl)cc2C(c2c(F)cccc2OC)=NC3)ccc1C(=O)O [MLN8237] | 102 ± 2.6 | 87.64 ± 0.83 | 95.68 ± 0.57 | 87.6 ± 0.9 | 74.6 ± 5.1 | 69.9 ± 2.5 | 103 ± 2.5 | 103.9 ± 0.17 | 98.7 ± 2.3 | 93.8 ± 1 | 91.1 ± 1.4 | 74.62 ± 0.32 | 0.864 | 0.862 | 0.767 | 0.248 | 0.118 | 0.0792 | 0.0576 | 0.0449 | 0.0354 | 0.99 | 0.824 | 0.525 | 0.215 | 0.146 | 0.0466 | 0.0216 | 0.0132 | 0.0159 |
